Experimental data from patent US6593094B2, “Compositions to enhance the efficacy and safety of bio-pharmaceutical drugs” (priority 1992, dated 2003).

Key:
[1] = target: T1, beta-1-receptors (Rattus norvegicus, UniProt P18090); test: in vivo cardiac response (dP/dt, LVP, HR) in anesthetized rat during infusion; conditions: i.v. infusion at varying rates
T1 construct: from tissue; host or cells: heart of anesthetized rat, in vivo (left ventricular pressure, dP/dt, heart rate)
Method: Following sedation, the neck of the rat was incised and a tracheotomy was performed, inserting a 14-gauge angiocatheter sheath into the trachea of the rat and securing it with a silk tie. The angiocatheter was connected through a small tube to a small animal respirator supplied with 1.0 liters of oxygen per minute and set to 95 breaths per minute.
The right carotid artery was next tied off, and after making a small incision, a Micro-Tip Millar pressure catheter was introduced down through the carotid artery, placing the end of the catheter into the left ventricular cavity of the rat's heart. Position of the catheter tip was determined by the waveform of the pressure reading-placement in the left ventricle was presumed when a diastolic pressure of zero mmHg and a reasonable systolic pressure (70 to 150 mmHg) was observed. […]
At this point for each rat, a baseline recording was obtained of the left ventricular pressure tracing. Segments of three to five seconds were recorded, and it was from these recorded tracings that the included figures of maximum left ventricular pressure (reported as LVP), maximum time-derivative of left ventricular pressure (dP/dT), and heart rate (HR) were later determined, by analysis with Sonometrics CardioSOFT data analysis software. […]
Again, at each rate, LVP was recorded for later analysis. […]

[2] = test system: mice; conditions: i.v. in mice; cited from earlier work
[3] = target: β2 receptor (Cavia porcellus, UniProt Q8K4Z4); conditions: calculated from a fit of the isoproterenol control curve
Excerpt: It is noted that, in the relevant art, there exists a method for calculating drug efficacy by utilization of easily identifiable biophysical parameters. […] Specifically, the experimental data and the calculated values were compared.

T1 sequence (P18090 whole entry, the tested form may be a part): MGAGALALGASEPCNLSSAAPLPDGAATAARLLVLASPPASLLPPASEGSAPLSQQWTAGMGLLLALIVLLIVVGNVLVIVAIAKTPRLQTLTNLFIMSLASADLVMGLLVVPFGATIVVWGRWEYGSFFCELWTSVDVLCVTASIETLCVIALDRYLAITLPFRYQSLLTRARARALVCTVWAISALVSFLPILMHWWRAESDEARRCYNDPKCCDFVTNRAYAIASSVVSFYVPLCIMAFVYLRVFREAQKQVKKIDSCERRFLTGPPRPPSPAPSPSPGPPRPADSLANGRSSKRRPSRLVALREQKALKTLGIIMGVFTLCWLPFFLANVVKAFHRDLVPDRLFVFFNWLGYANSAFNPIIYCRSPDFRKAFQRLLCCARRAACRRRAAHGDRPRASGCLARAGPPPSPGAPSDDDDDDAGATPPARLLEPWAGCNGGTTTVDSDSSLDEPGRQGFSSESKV
Sequence of β2 receptor (Q8K4Z4 whole entry): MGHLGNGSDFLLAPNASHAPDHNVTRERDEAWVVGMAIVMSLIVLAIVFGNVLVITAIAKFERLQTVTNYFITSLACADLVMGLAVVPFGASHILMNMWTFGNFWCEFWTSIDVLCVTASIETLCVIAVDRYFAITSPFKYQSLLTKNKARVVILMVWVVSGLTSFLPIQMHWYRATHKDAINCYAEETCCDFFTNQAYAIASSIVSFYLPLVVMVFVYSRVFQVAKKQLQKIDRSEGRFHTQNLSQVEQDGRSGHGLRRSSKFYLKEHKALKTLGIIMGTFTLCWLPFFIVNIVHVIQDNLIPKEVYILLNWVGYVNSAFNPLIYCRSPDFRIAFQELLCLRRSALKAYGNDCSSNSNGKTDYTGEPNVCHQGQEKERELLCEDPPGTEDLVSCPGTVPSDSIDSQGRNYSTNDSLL

φ=(KDLKDH/2)^−½, value of the maximum of the control curve [3] [µM] | Compound | dP/dT response with increasing dosage [1] | dP/dT response with increasing dosage ([1]; listed as Dob) | LD50 [2] [mg/kg]
 | CC(CCc1ccc(O)cc1)NCCc1ccc(O)c(O)c1 (stereo not shown) [dobutamine] | at higher dosages the dP/dT again began to decrease (desensitization) | showed a decline in response | 73
7.48 | CC(C)NCC(O)c1ccc(O)c(O)c1 (stereo not shown) [isoproterenol] |  |  | 
